The results in this text go back to a melting point compilation (Tetko et al.; mined from patent text by program, amines drawn as free bases though some values may be those of a salt).

For the compound `CCOc1nc2ccccc2nc1NC(=O)N1CCN(c2cc(F)cc(F)c2)CC1`, the melting point was 146 to 148 °C.

In the case of `c1ccn(Nc2ncnc3c2ncn3-n2cccc2)c1`, the melting point is 230 to 232 °C.

For the compound `COC(=O)C(CCN(C(C)C)C(C)C)(CC(=O)N1CCCCC1)c1ccccc1Cl` (stereo not given), the melting point lay in the range of 104 to 106 °C.

`COC(=O)c1c(-c2ccccc2Cl)c2cc(C)c(C)cc2[nH]c1=O` registered a melting point of 288 to 289 °C.

For `O=[N+]([O-])c1ccc(Cc2nc3c(s2)CCCC3)cc1`, the melting point was in the range of 118 to 119 °C.

For `COC(=O)c1nc(C2CC2)nc(SC)c1Cl`, the melting point is 74 to 75 °C.

`Fc1ccc(F)c(CC2CCN(C3CC=C(c4ccc5c(c4)OCO5)CC3)CC2)c1` (stereo not given) came in with a melting point of 87 to 88 °C.

With `S=C(NC(=Nc1ccccc1)c1ccccc1)Nc1ccccc1`, the melting point was 143 to 144 °C.

For the compound `CCOC(=O)NC(C(=O)NN(Cc1ccc(-c2cncs2)cc1)CC(O)C(Cc1ccccc1)NC(=O)C(NC(=O)OC)C(C)CC)C(C)C` (stereo not given), the melting point lay within 200 to 203 °C.

Take `CC[C@@H](c1ccc(F)cc1)N(Cc1ccc(C(=O)OC)cc1)S(=O)(=O)c1ccc(Cl)cc1`: the melting point was in the range of 73 to 75 °C.

Regarding `CC1(C(O)(C=Cc2ccc(Cl)cc2)Cn2cncn2)CC1(F)F` (stereo not given), the melting point came out at 131 °C.

With `CCOC(=O)c1c(CCc2ccc(OC)cc2)nc2c(c1-c1ccc(C(=O)NCc3ccccn3)cc1)C(=O)N1CCC[C@H]1C2`, the melting point was > 200 °C.

As to `COC(=O)C(OC)c1nsc2ccc(-n3c(=O)cc(C(F)(F)F)n(C)c3=O)cc12` (stereo not given), the melting point lay within 166 to 168 °C.

`CCN/C(=C1/Sc2ccccc2C1=O)c1ccccc1CC` gave a melting point of 76 to 77 °C.

In turn, `CN1CCN(S(=O)(=O)c2ccc3c(c2)C(=O)c2ccccc2C3=O)CC1` gave a melting point of 216 to 218 °C.

With `COc1ccc(-c2cc(S(=O)(=O)c3ccc(N)cc3)cc(N3CCCC3)n2)cc1`, the melting point was 227 to 229 °C.

As to `Oc1nc2ccc3nsnc3c2nc1O`, the melting point was > 300 °C.

`COc1cc(C)c(C(O)C#CC(F)(F)F)c(C)c1C` (stereo not given) came in with a melting point of 126 to 130 °C.

Turning to `CCCCCCCCCCNC(=O)C=C(c1ccccc1)c1ccc([N+](=O)[O-])cc1`, the melting point lay in the range of 91 to 93 °C.

On to `CCOCCCCC(=S)c1ccc(C)cc1`, for which the melting point was 62 to 63.5 °C.

`O=C(O)Cc1cccc(OCCCNCC(c2ccccc2)c2ccccc2)c1` registered a melting point of 49.1 °C.

`O=C(O)CCCCCCCCN1NC(c2ccccc2)=C(c2ccccc2)NC1=O` showed a melting point of 97 to 100 °C.

Regarding `COc1ccc(CC(=Nc2ccccc2)NC(=S)NCc2cccnc2)cc1`, the melting point lay within 175 to 176 °C.

Consider `OC1CSC(Oc2ccc(-c3cccnc3F)nc2Cl)C(O)C1O` (stereo not given), for which the melting point came out at 153 °C.

The compound `BrCCCCOc1ccc(OCCCBr)cc1` returned a melting point of 73 to 76 °C.

Compound `CC(C)(C)c1ccc(S(=O)(=O)Nc2nc(-c3ncccn3)nc(OCCO)c2-c2cccs2)cc1` showed a melting point of 236 to 237 °C.

Compound `CC(C)N=C(N=c1ccccn1CCc1ccccc1Br)NC(C)C` yielded a melting point of 125 to 128 °C.

The compound `OC1CCCCC1c1ncc[nH]1` (stereo not given) returned a melting point of 133 to 134 °C.

In turn, `CC1(C)OC(=S)Nc2ccc(-c3ccccc3Cl)cc21` had a melting point of 171 to 172 °C.

For `NCCCCc1csc(-c2ccccn2)n1`, the melting point lay in the range of 119 to 121 °C.

For `COc1cccc(C(=O)c2ccc([N+](=O)[O-])c(C=O)c2)c1`, the melting point came out at 84 °C.

`Cn1cc(-c2nc3c(N[C@H]4[C@@H](C(N)=O)[C@@H]5C=C[C@H]4C5)ccnc3[nH]2)cn1` gave a melting point of 236 to 238 °C.

Compound `CCc1c(NC(=O)c2cc(S(C)(=O)=O)ccc2OCC(C)C)c(C(N)=O)nn1Cc1nccn1C` displayed a melting point of 201 to 206 °C.

The compound `CC1(C)SC(=N)NC1=O` showed a melting point of 252 to 254 °C.

Turning to `CC1(C)C=CC(=Cc2ccc(F)cc2)C1(O)Cn1ccnc1` (stereo not given), the melting point amounted to 172 °C.
